For one data set, the system named is Male Swiss-Webster mice. The data set can be described thus: 3-nitrotyrosine to tyrosine ratio in mouse striatum after MPTP. In kind it is in vivo. The conditions noted are these: MPTP 20 mg/kg x4; 7-NI 25 or 50 mg/kg. On the procedure:
Dopamine, 3,4-dihydroxyphenlyacetic acid (DOPAC), homovanillic acid (HVA), p-tyrosine, and 3-nitrotyrosine were quantified by HPLC with 16-electrode electrochemical detection (Beal et al. (1990) supra) and are expressed as ng/mg protein (mean±SEM) (FIG. 1). 3-Nitrotyrosine data are expressed as ratios of 3-nitrotyrosine to p-tyrosine to normalize for differing brain concentrations of tyrosine. The statistical significance of differences was determined via one-way ANOVA followed by Fisher PLSD post hoc test to compare group means. All animal use procedures were in strict accordance with the NIH Guide for the Care and Use of Laboratory Animals and were approved by the local Animal Care Committee.
Role of Peroxynitrite in MPTP. To determine whether peroxynitrite plays a role in MPTP neurotoxicity, we therefore measured the ratio of 3-nitrotyrosine to tyrosine in mouse striatum following administration of MPTP.

For data set [1] the following is noted: Babbedge et al. 1993; Moore et al. 1993; cited from earlier work.
In a further data set the test system is Male Sprague-Dawley rats. The experiment in a line: Striatal lesions produced by intrastriatal NMDA, AMPA, KA (TTC staining). Type of data set: in vivo, rat. The protocol:
Stereotaxic Lesion Technique. Male Sprague-Dawley rats (Charles River, Cambridge, Mass.) weighing 300-325 g were anesthetized with pentobarbital (50 mg/kg i.p.) and positioned in a David Kopf stereotaxic instrument with the incisor bar set at 3.3 mm below the intermural line. Malonate, NMDA, KA, and AMPA were dissolved in 0.1M phosphate-buffered saline (pH, 7.4). Intrastriatal injections were made with a 10 μl Hamilton syringe fitted with a 30 gauge blunt-tipped needle into the left striatum at the coordinates 0.5 mm anterior bregma, 2.6 mm lateral to the midline and 5 mm ventral to the dura. Injection volumes were 1 μl (3 μmol malonate). All injections were made over 1 min and the needle was left in place for an additional 1 min before being slowly withdrawn. 7-NI was dissolved and sonicated in peanut oil at a concentration of 10 mg/ml. 50 mg/kg of 7-NI were administered i.p. 30 min before striatal injections of malonate, NMDA, KA and AMPA. […] Nine to ten animals were used per group in each experiment.
Quantification of Lesion Volume. One week after the striatal injections, animals were sacrificed by decapitation and the brains were rapidly removed, placed in cold saline for 10 min, and sectioned coronally into slices at 2 mm intervals. Slices were stained in 2% 2,3,5-triphenyltetrazolium chloride monohydrate (TTC) (Sigma, St. Louis, Mo.) solution at room temperature in the dark for 30 min followed by fixation in phosphate-buffered 4% paraformaldehyde. (Bederson et al. (1986) Stroke 17:1304-1308.) The lesioned area (noted by pale staining) was measured on the posterior surface of each section using an Apple Macintosh.COPYRGT. based image analysis system (Sony color video camera, Software: ColorSnap.COPYRGT. (Computer Friends Inc., Portland, Oreg.) and IPLab Spectrum.COPYRGT. (Signal Analytics, Vienna, Va.)). The lesions were evaluated by an experienced histologist, who verified the reliability of the TTC measurements in animals injected with malonate on adjacent sections stained with either TTC or Nissl stain (Schulz et al. (1995) J. Neurochem 64:in press).

In the next data set the target is dopamine transporter (Mus musculus, UniProt Q61327). The conditions noted are these: at 1, 10 and 100 μM; 0.13 μM [3H]-dopamine.
For another data set, the system named is rats. The experiment in a line: Striatal lesions produced by systemic 3-NP. Type of data set: in vivo, rat. On the procedure:
Systemic 3-NP treatment. 3-NP was diluted in water and adjusted to pH 7.4 with NaOH and administered at a dose of 10 mg/kg i.p. every 12 h. With this dosing regimen the animals become acutely ill after 4 to 5 days and show large striatal lesions. (Beal et al. (1993) J. Neurosci. 13:4181-4192.) At the same time points, 25 mg/kg of 7-NI dissolved in peanut oil at a concentration of 10 mg/ml (treated group) or vehicle alone (peanut oil, control group) was administered s.c.. Since there was variability in the times at which animals became ill, they were clinically examined 3 hours after the injections and 1 animal of each group was sacrificed when an animal was acutely ill, regardless of whether it was a vehicle treated control or a 7-NI treated animal. In an initial experiment 12 animals per group were studied. Following sacrifice, striatal lesion size was assessed by TTC staining.
In a second experiment, 5 animals per group were studied with the same treatment paradigm. Since the first experiment had shown by pairwise sacrifice that the vehicle treated animals always became ill before the 7-NI treated animals, a third experimental group of 5 animals was included to determine whether 7-NI treated animals become ill following administration of 3-NP. […] In this experiment animals were deeply anesthetized and transcardially perfused with ice cold saline, followed by phosphate buffered 4% paraformaldehyde (Beal et al. (1991) J. Neurosci. 11:1649-1659). Brains were sectioned at 50 μm intervals on a freezing microtome. Combined staining for Nissl substance and NADPH-diaphorase was performed. Adjacent sections were stained by immunohistochemistry with antibodies against ^8 -hydroxy-2deoxyguanosine.

Where [2] appears, read: 2 doses of 50 mg/kg 7-NI 4 h and 0.5 h before striatal injection.

Sequence of dopamine transporter (Q61327 whole entry): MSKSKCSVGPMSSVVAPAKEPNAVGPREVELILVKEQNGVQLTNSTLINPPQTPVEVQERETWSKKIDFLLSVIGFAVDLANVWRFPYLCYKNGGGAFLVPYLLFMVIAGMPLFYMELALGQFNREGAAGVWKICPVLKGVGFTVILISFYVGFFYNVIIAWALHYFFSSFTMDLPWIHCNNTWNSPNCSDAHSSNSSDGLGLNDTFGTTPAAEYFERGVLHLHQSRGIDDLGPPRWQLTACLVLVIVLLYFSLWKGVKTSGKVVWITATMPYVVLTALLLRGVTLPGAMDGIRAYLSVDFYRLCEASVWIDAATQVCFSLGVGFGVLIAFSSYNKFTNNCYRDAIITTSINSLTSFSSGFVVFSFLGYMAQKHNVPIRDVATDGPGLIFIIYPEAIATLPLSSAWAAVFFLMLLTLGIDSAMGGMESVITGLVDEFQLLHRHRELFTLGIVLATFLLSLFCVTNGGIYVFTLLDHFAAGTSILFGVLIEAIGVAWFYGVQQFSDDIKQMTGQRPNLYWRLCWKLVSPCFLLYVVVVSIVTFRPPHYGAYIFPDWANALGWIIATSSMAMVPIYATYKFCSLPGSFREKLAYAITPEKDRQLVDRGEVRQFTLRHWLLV

As for `O=[N+]([O-])c1cccc2cn[nH]c12` [7-NI, 7-nitroindazole], the “MPTP-induced increase of 3-nitrotyrosine to tyrosine ratio in striatum” value in the data set with Male Swiss-Webster mice was “significantly attenuated”. For the same compound, the “effect on blood pressure in vivo” value in data set [1] is listed as “no effect”. In the data set on Male Sprague-Dawley rats (setting [2]), the “protection against lesions produced by 5 nmol KA” value is reported as “no protection”, the “protection against lesions produced by 30 nmol AMPA” value is on record as “no protection” and the “protection against lesions produced by 200 nmol NMDA” value amounted to 35%. Besides, the “striatal lesion volume, 200 nmol NMDA” value in the data set on Male Sprague-Dawley rats (single dose 7-NI 50 mg/kg i.p. before striatal injection, vehicle 25.0±2.4) was 21.3±3.4 mm^3. In the data set with Male Sprague-Dawley rats (single dose 7-NI 50 mg/kg i.p. before striatal injection, vehicle 33.6±4.6), the “striatal lesion volume, 30 nmol AMPA” value is on record as 30.4±5.2 mm^3. Further, the “striatal lesion volume, 5 nmol KA” value in the data set with Male Sprague-Dawley rats (single dose 7-NI 50 mg/kg i.p. before striatal injection, vehicle 39.5±2.9) is listed as 36.3±4.4 mm^3. Moreover, at dopamine transporter, the “inhibition of [3H]dopamine uptake into synaptosomes” value is recorded as “did not inhibit”. The “protection of striatum from 3-NP lesions (Nissl/NADPH-diaphorase histology)” value with rats (3-NP 10 mg/kg every 12 h with 7-NI, n=5) is “completed protected”. In addition, in the data set on rats (3-NP 10 mg/kg i.p. every 12 h, 7-NI 50 mg/kg every 12 h as printed), the “striatal lesions produced by 3-NP (TTC staining)” value is recorded as “completely prevented”. Further, the “median accumulative 3-NP dose at first symptoms” value in the data set on rats (12 h) was 130 mg/kg.

The values are drawn from patent US5849782A, “Methods of inhibiting neurodegenerative diseases” (The General Hospital Corporation, priority 1996, dated 1998).
